Tested on: bacteria in clinical bovine mastitis milk samples
Assay: Combined bacteria identification and antimicrobial susceptibility test (colour of wells, MIC) on clinical bovine mastitis milk samples
Type: cell-based
Protocol: Clinical bovine mastitis milk samples were collected by a vet clinic in South Island, New Zealand. Samples were stored in the freezer for several months and shipped frozen to the testing facility. In this Example, the term “clinical” means that dairy cows had clinical symptoms of an udder infection e.g. cow behaved unusual, milk clots, swollen udder among other typical symptoms. Testing was executed in microwell plate comprising of 24 wells (3×8 wells).
In addition, 20 ul of clinical mastitis sample was added to each well with a laboratory pipette.
(§1) Abbreviations • 1. 80 ul GC+10 ul Tell: 80 ul Giolitti Cantoni base broth+10 ul Tellurite solution (1%); • 2. 80 ul TSB/Esc/Fer Cit: 80 ul Tryptic soy broth containing 0.25% Esculin and 0.125% Ammonium Ferric Citrate; • 3. 80 ul TSB/Esc/Fer Cit+10 ul Genta: 80 ul Tryptic soy broth containing 0.25% Esculin and 0.125% Ammonium Ferric Citrate+10 ul of Gentamycin solution 10 mg/ml; • 4. 80 ul McC/PR25: 80 ul MacConkey broth (single strength) containing 0.0125% phenol red; and • 5. 80 ul TSB/PR25: 80 ul Tryptic soy broth containing 0.0125% phenol red. Bacteria Identification
Columns A to C and rows 1 and 2 were used for bacteria identification. A1: coagulase positive Staph; A2: Staphylococci; B1: Strep group D; B2: Strep group D; C1: general enrichment media (gram+ and gram-bacteria); C2: coliform bacteria.
Column A3 to A8: serial dilution of benzyl penicillin as potassium. Column B3 to B8: serial dilution of ceftiofur as hydrochloride. Column C3 to C8: serial dilution of cloxacillin as sodium. Antibiotic concentrations are listed as free form ranging between 4 ug/ml to 0.05 ug/ml.
Minimum inhibitory substance concentration (MIC) is here defined as the concentration if a colour change occurs between two wells (one well remains red with drug concentration 1, the other one yellow with drug concentration 2, whereas drug concentration 1 is larger than drug concentration 2) then the MIC is the value of drug concentration 1.
Table 21 indicates the microwell plate configuration #1; Drugs: Benzylpenicillin as potassium; Cloxacillin as sodium; Ceftiofur as hydrochloride; Drug concentration in each well (A3 to C8) is based on 80 μl composition+10 μl drug solution+20 μl clinical mastitis milk sample and equivalent to listed drug concentration in μg/ml; 20 ul of clinical bovine mastitis milk sample was added to each well (A1 to C8).
In addition, each well received one drop of clinical sample from a transfer pipette which was on average about 35 mg. This was determined through weighing the well plate prior and after the addition of clinical mastitis samples. This weight was then divided by 24.
as §1, with “•” for “Abbreviations •”, “red.” for “red. Bacteria Identification”
Columns A to C and rows 1 and 2 were used for bacteria identification. A1: coagulase positive Staph; A2: Staphylococci; B1: Strep Group D; B2: -; C1: general enrichment media (gram+ and gram-); C2: coliform bacteria.
Column A3 to A8: serial dilution of benzyl penicillin as potassium. Drug concentrations given as free form ranging between 4 ug/ml to 0.05 ug/ml. Column B3 to B8: serial dilution of ceftiofur as hydrochloride. Drug concentrations given as free form ranging between 4 ug/ml to 0.05 ug/ml. Column C3 to C8: serial dilution of cloxacillin as sodium. Drug concentrations given as free form ranging between 4 ug/ml to 0.05 ug/ml.

`Cc1onc(-c2ccccc2Cl)c1C(=O)N[C@@H]1C(=O)N2[C@@H]1SC(C)(C)[C@@H]2C(=O)O` [cloxacillin] was tested, and the “Colour of media in each well” value (ID 5 to 8, T = 0 h (prior incubation, reference), plate configuration #2, drug 1 μg/ml) was “red”, the “Colour of media in each well” value (ID 5 to 8, T = 0 h (prior incubation, reference), plate configuration #2, drug 2 μg/ml) was “red” and the “Colour of media in each well” value (ID 5 to 8, T = 0 h (prior incubation, reference), plate configuration #2, drug 4 μg/ml) was “red”. For the same molecule, the “Colour of media in each well” value (ID 6, T = 23h, 37° C., plate configuration #2, drug 0.05 μg/ml (Table 31)) was “yellow”, the “Colour of media in each well” value (ID 6, T = 23h, 37° C., plate configuration #2, drug 0.1 μg/ml (Table 31)) was “yellow” and the “Colour of media in each well” value (ID 6, T = 23h, 37° C., plate configuration #2, drug 0.5 μg/ml (Table 31)) was “yellow”. The “Colour of media in each well” value (ID 6, T = 23h, 37° C., plate configuration #2, drug 1 μg/ml (Table 31)) was “yellow”, the “Colour of media in each well” value (ID 6, T = 23h, 37° C., plate configuration #2, drug 2 μg/ml (Table 31)) was “yellow” and the “Colour of media in each well” value (ID 6, T = 23h, 37° C., plate configuration #2, drug 4 μg/ml (Table 31)) was “yellow”. For the same molecule, the “Colour of media in each well” value (ID 6, T~7 h, 37° C., plate configuration #2, Table 35, drug 0.05 μg/ml) was “yellow”, the “Colour of media in each well” value (ID 6, T~7 h, 37° C., plate configuration #2, Table 35, drug 0.1 μg/ml) was “yellow” and the “Colour of media in each well” value (ID 6, T~7 h, 37° C., plate configuration #2, Table 35, drug 0.5 μg/ml) was “yellow”. For the same molecule, the “Colour of media in each well” value (ID 6, T~7 h, 37° C., plate configuration #2, Table 35, drug 1 μg/ml) was “yellow”, the “Colour of media in each well” value (ID 6, T~7 h, 37° C., plate configuration #2, Table 35, drug 2 μg/ml) was “yellow” and the “Colour of media in each well” value (ID 6, T~7 h, 37° C., plate configuration #2, Table 35, drug 4 μg/ml) was “yellow”. For the same molecule, the “Colour of media in each well” value (ID 6, T~11 h, 37° C., plate configuration #2, Table 35, drug 0.05 μg/ml) was “yellow”, the “Colour of media in each well” value (ID 6, T~11 h, 37° C., plate configuration #2, Table 35, drug 0.1 μg/ml) was “yellow” and the “Colour of media in each well” value (ID 6, T~11 h, 37° C., plate configuration #2, Table 35, drug 0.5 μg/ml) was “yellow”. The “Colour of media in each well” value (ID 6, T~11 h, 37° C., plate configuration #2, Table 35, drug 1 μg/ml) was “yellow”, the “Colour of media in each well” value (ID 6, T~11 h, 37° C., plate configuration #2, Table 35, drug 2 μg/ml) was “yellow” and the “Colour of media in each well” value (ID 6, T~11 h, 37° C., plate configuration #2, Table 35, drug 4 μg/ml) was “yellow”. The “Colour of media in each well” value (ID 6, T~23 h, 37° C., plate configuration #2, Table 35, drug 0.05 μg/ml) was “yellow”, the “Colour of media in each well” value (ID 6, T~23 h, 37° C., plate configuration #2, Table 35, drug 0.1 μg/ml) was “yellow” and the “Colour of media in each well” value (ID 6, T~23 h, 37° C., plate configuration #2, Table 35, drug 0.5 μg/ml) was “yellow”. The “Colour of media in each well” value (ID 6, T~23 h, 37° C., plate configuration #2, Table 35, drug 1 μg/ml) was “yellow”, the “Colour of media in each well” value (ID 6, T~23 h, 37° C., plate configuration #2, Table 35, drug 2 μg/ml) was “yellow” and the “Colour of media in each well” value (ID 6, T~23 h, 37° C., plate configuration #2, Table 35, drug 4 μg/ml) was “yellow”. For the same molecule, the “Colour of media in each well” value (ID 7, T = 23h, 37° C., plate configuration #2, drug 0.05 μg/ml) was “yellow”, the “Colour of media in each well” value (ID 7, T = 23h, 37° C., plate configuration #2, drug 0.1 μg/ml) was “yellow” and the “Colour of media in each well” value (ID 7, T = 23h, 37° C., plate configuration #2, drug 0.5 μg/ml) was “red”. The “Colour of media in each well” value (ID 7, T = 23h, 37° C., plate configuration #2, drug 1 μg/ml) was “red”, the “Colour of media in each well” value (ID 7, T = 23h, 37° C., plate configuration #2, drug 2 μg/ml) was “red” and the “Colour of media in each well” value (ID 7, T = 23h, 37° C., plate configuration #2, drug 4 μg/ml) was “red”. For the same molecule, the “Colour of media in each well” value (ID 8, T = 23 h, 37° C., plate configuration #2, drug 0.05 μg/ml) was “yellow”, the “Colour of media in each well” value (ID 8, T = 23 h, 37° C., plate configuration #2, drug 0.1 μg/ml) was “yellow” and the “Colour of media in each well” value (ID 8, T = 23 h, 37° C., plate configuration #2, drug 0.5 μg/ml) was “red”. The “Colour of media in each well” value (ID 8, T = 23 h, 37° C., plate configuration #2, drug 1 μg/ml) was “red”, the “Colour of media in each well” value (ID 8, T = 23 h, 37° C., plate configuration #2, drug 2 μg/ml) was “red” and the “Colour of media in each well” value (ID 8, T = 23 h, 37° C., plate configuration #2, drug 4 μg/ml) was “red”. The “Colour of media in each well” value (Table 24, sample ID 2, 22 hours at 37° C., plate configuration #1, row 3 of serial dilution 4 ug/ml to 0.05 ug/ml) was “red”, the “Colour of media in each well” value (Table 24, sample ID 2, 22 hours at 37° C., plate configuration #1, row 4 of serial dilution 4 ug/ml to 0.05 ug/ml) was “red” and the “Colour of media in each well” value (Table 24, sample ID 2, 22 hours at 37° C., plate configuration #1, row 5 of serial dilution 4 ug/ml to 0.05 ug/ml) was “red”. For the same molecule, the “Colour of media in each well” value (Table 24, sample ID 2, 22 hours at 37° C., plate configuration #1, row 6 of serial dilution 4 ug/ml to 0.05 ug/ml) was “red”, the “Colour of media in each well” value (Table 24, sample ID 2, 22 hours at 37° C., plate configuration #1, row 7 of serial dilution 4 ug/ml to 0.05 ug/ml) was “yellow” and the “Colour of media in each well” value (Table 24, sample ID 2, 22 hours at 37° C., plate configuration #1, row 8 of serial dilution 4 ug/ml to 0.05 ug/ml) was “yellow”. It also gave an MIC (clinical sample ID 1 (streptococci group D), 37° C. for 22 hours, plate configuration #1) of 0.5 µg/mL, an MIC (clinical sample ID 2 (streptococci group D, also coagulase positive Staph), 37° C. for 22 hours, plate configuration #1) of 0.5 µg/mL and an MIC (clinical sample ID 4 (coagulase positive Staph), 37° C. for 22 hours, plate configuration #1) of 0.5 µg/mL. For the same molecule, the MIC (clinical sample ID 5 (streptococci group D), 37° C. for 23 hours, plate configuration #2) was 0.5 µg/mL, the MIC (clinical sample ID 7 (coagulase positive Staph), 37° C. for 23 hours, plate configuration #2) was 0.5 µg/mL and the MIC (clinical sample ID 8 (coagulase negative Staph and Streptococci group D), 37° C. for 23 hours, plate configuration #2) was 0.5 µg/mL.

— patent publication US10829796B2, “Bacteria identification and antimicrobial susceptibility test” (priority 2015, dated 2020)
